Laboratory results taken from US9902752B2, “5-fluorouracil derivatives” (B. Braun Melsungen AG, priority 2012, dated 2018).

Test: Acidic stability (hydrolysis) of the O-2′,3′-ketal group
Assay type: physicochemical
Conditions: 1N aqueous HCl/MeCN 1:1 (v/v), RP-18 HPLC, calculated graphically; read-out: half-life under acidic conditions
Protocol: Both, the acidic hydrolysis of the O-2′,3′-ketal moiety of the ester 28a as well as the chitosanase-catalyzed degradation of chitosan foil-bound 5-fluorouridine was measured. Acidic stability was determined by incubating compound 28a (2 mg) in 1N aqueous HCl/MeCN 1:1 (v/v), neutralization by Et3N and subsequent RP-18 HPLC analysis as described above (FIG. 12).
The faster migrating zone contains always pure 5-fluorouridine, the slower migrating zone the residual ketal 28a. The half-life value was calculated graphically from a plot of the peak integral of both, the residual ketals and 5-fluorouridine vs. reaction time (FIG. 13). Upon acidic hydrolysis only the nucleoside and no 5-fluorouracil were formed.

- half-life: ~5 h
Compound: CCOC(=O)CCC1(C)OC2C(O1)[C@@H](CO)O[C@H]2n1cc(F)c(=O)[nH]c1=O (stereo partly shown) [Compound 28a]
